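Step 1: Grow cells in 96-well plates. Step 2: Expose to compound for 48 hours at 5 concentrations. Step 3: Interpolate endpoints linearly; if unreached, use highest concentration. TGI: concentration producing complete growth inhibition.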
Key:
Assay in all cases: NCI tumour cell line growth inhibition, 48 h
786-0 renal = tested on: 786-0 renal
A498 renal = tested on: A498 renal
A549 NSCLC = tested on: A549 NSCLC
ACHN renal = tested on: ACHN renal
BT-549 breast = tested on: BT-549 breast
CAKI-1 renal = tested on: CAKI-1 renal
COLO 205 colon = tested on: COLO 205 colon
DU-145 prostate = tested on: DU-145 prostate
HCT-116 colon = tested on: HCT-116 colon
HCT-15 colon = tested on: HCT-15 colon
HL-60(TB) leukemia = tested on: HL-60(TB) leukemia
HOP-62 NSCLC = tested on: HOP-62 NSCLC
HOP-92 NSCLC = tested on: HOP-92 NSCLC
HS 578T breast = tested on: HS 578T breast
HT29 colon = tested on: HT29 colon
IGROV1 ovarian = tested on: IGROV1 ovarian
K-562 leukemia = tested on: K-562 leukemia
KM12 colon = tested on: KM12 colon
LOX IMVI melanoma = tested on: LOX IMVI melanoma
M14 melanoma = tested on: M14 melanoma
MALME-3M melanoma = tested on: MALME-3M melanoma
MCF7 breast = tested on: MCF7 breast
MDA-MB-231 breast = tested on: MDA-MB-231 breast
MDA-MB-435 = tested on: MDA-MB-435
MOLT-4 leukemia = tested on: MOLT-4 leukemia
NCI-H226 lung = tested on: NCI-H226 lung
NCI-H23 lung = tested on: NCI-H23 lung
NCI-H460 lung = tested on: NCI-H460 lung
NCI-H522 lung = tested on: NCI-H522 lung
NCI/ADR-RES ovarian = tested on: NCI/ADR-RES ovarian
OVCAR-3 ovarian = tested on: OVCAR-3 ovarian
OVCAR-4 ovarian = tested on: OVCAR-4 ovarian
OVCAR-5 ovarian = tested on: OVCAR-5 ovarian
OVCAR-8 ovarian = tested on: OVCAR-8 ovarian
PC-3 prostate = tested on: PC-3 prostate
RPMI-8226 leukemia = tested on: RPMI-8226 leukemia
RXF 393 renal = tested on: RXF 393 renal
SF-268 CNS = tested on: SF-268 CNS
SF-295 CNS = tested on: SF-295 CNS
SF-539 CNS = tested on: SF-539 CNS
SK-MEL-2 melanoma = tested on: SK-MEL-2 melanoma
SK-MEL-28 melanoma = tested on: SK-MEL-28 melanoma
SK-MEL-5 melanoma = tested on: SK-MEL-5 melanoma
SK-OV-3 ovarian = tested on: SK-OV-3 ovarian
SN12C renal = tested on: SN12C renal
SNB-19 CNS = tested on: SNB-19 CNS
SNB-75 CNS = tested on: SNB-75 CNS
SR leukemia = tested on: SR leukemia
SW-620 colon = tested on: SW-620 colon
T-47D breast = tested on: T-47D breast
TK-10 renal = tested on: TK-10 renal
U251 CNS = tested on: U251 CNS
UACC-257 melanoma = tested on: UACC-257 melanoma
UACC-62 melanoma = tested on: UACC-62 melanoma
UO-31 renal = tested on: UO-31 renal

With `O=C(CC(Cl)(Cl)C(Cl)(Cl)Cl)c1ccccc1` the TGI (786-0 renal) was 11.4 µM, the TGI (A498 renal) was 34.6 µM and the TGI (A549 NSCLC) was 39.1 µM. The TGI (ACHN renal) was 5.29 µM, the TGI (BT-549 breast) was 39.9 µM and the TGI (CAKI-1 renal) was 4.39 µM. It also gave a TGI (COLO 205 colon) of 13.2 µM, a TGI (DU-145 prostate) of 15.1 µM and a TGI (HCT-116 colon) of 4.91 µM. It also gave a TGI (HCT-15 colon) of 4.56 µM, a TGI (HL-60(TB) leukemia) of 29.9 µM and a TGI (HOP-62 NSCLC) of 16.4 µM. The TGI (HOP-92 NSCLC) was 59.5 µM, the TGI (HS 578T breast) was 56.2 µM and the TGI (HT29 colon) was 4.72 µM. For the same molecule, the TGI (IGROV1 ovarian) was 18.3 µM, the TGI (K-562 leukemia) was 4.57 µM and the TGI (KM12 colon) was 14.8 µM. For the same molecule, the TGI (LOX IMVI melanoma) was 3.74 µM, the TGI (M14 melanoma) was 7.4 µM and the TGI (MALME-3M melanoma) was 8.91 µM. The TGI (MCF7 breast) was 23.6 µM, the TGI (MDA-MB-231 breast) was 5.48 µM and the TGI (MDA-MB-435) was 5.34 µM. The TGI (MOLT-4 leukemia) was 5.02 µM, the TGI (NCI-H226 lung) was 16.2 µM and the TGI (NCI-H23 lung) was 20.5 µM. The TGI (NCI-H460 lung) was 32.5 µM, the TGI (NCI-H522 lung) was 7.3 µM and the TGI (NCI/ADR-RES ovarian) was 43.9 µM. The TGI (OVCAR-3 ovarian) was 4.33 µM, the TGI (OVCAR-4 ovarian) was 5.67 µM and the TGI (OVCAR-5 ovarian) was 25.8 µM. It also gave a TGI (OVCAR-8 ovarian) of 8.53 µM, a TGI (PC-3 prostate) of 29.1 µM and a TGI (RPMI-8226 leukemia) of 6.09 µM. For the same molecule, the TGI (RXF 393 renal) was 4.25 µM, the TGI (SF-268 CNS) was 55.4 µM and the TGI (SF-295 CNS) was 19.4 µM. For the same molecule, the TGI (SF-539 CNS) was 31.3 µM, the TGI (SK-MEL-2 melanoma) was 32.3 µM and the TGI (SK-MEL-28 melanoma) was 5.3 µM. It also gave a TGI (SK-MEL-5 melanoma) of 24.3 µM, a TGI (SK-OV-3 ovarian) of 38.2 µM and a TGI (SN12C renal) of 3.09 µM. The TGI (SNB-19 CNS) was 39.2 µM, the TGI (SNB-75 CNS) was 29.3 µM and the TGI (SR leukemia) was 4.37 µM. The TGI (SW-620 colon) was 12.2 µM, the TGI (T-47D breast) was 7.08 µM and the TGI (TK-10 renal) was 18.4 µM. For the same molecule, the TGI (U251 CNS) was 18.3 µM, the TGI (UACC-257 melanoma) was 3.81 µM and the TGI (UACC-62 melanoma) was 6.56 µM. It also gave a TGI (UO-31 renal) of 14.5 µM.

— PubChem BioAssay (NCI)
